In data set [1] the test system is PKB Ser473 phosphorylation in Rat1-myr-HA-p110 beta cells. The data set can be described thus: Reverse protein array assay, PKB Ser473 phosphorylation in Rat1-myr-p110 beta cells. In kind it is cell-based. The conditions noted are these: 0.5 h, pAkt Ser473, 30 minutes incubation, read-out: p-PKB IC50. The method in brief:
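Cells: Rat1-myr-HA-p110 alpha/beta/delta, seeded ≥20 h. Lysis on ice 10 min; reverse-phase protein array, 4 lysate dilutions; fluorescence read, relative intensity.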

The next data set deals with T1, PI3K alpha (Homo sapiens, UniProt P42336).
T1 construct: p85(iSH2) fusion partner (see partner chain) (N); His tag (C); made in house; host or cells: baculovirus; Tn5 (Trichoplusia ni) or TiniPro insect cells
The data set can be described thus: PI3K alpha kinase assay (Kinase-Glo luminescence). Type of data set: biochemical. The method in brief:
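PI3Kα construct EMV B1075 (10 nM final) was preincubated with 10 μg/mL phosphatidylinositol in 10 mM Tris-HCl pH 7.5, 3 mM MgCl2, 50 mM NaCl, 0.05% CHAPS, 1 mM DTT. Reaction started with 1 μM ATP, 60 min at room temperature; remaining ATP measured by Kinase-Glo luminescence. IC50 from 4-parameter logistic fit of 8-point titrations.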
For orientation: Kinase-Glo reads ATP consumption through a luciferase reaction.

A further data set in a line: Solubility at pH 6.8. In kind it is physicochemical. The conditions noted are these: pH 6.8, aqueous buffer, thermodynamic from solid; read-out: solubility. The essentials: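 Solubility was measured at pH 6.8 following the cited Zhou et al. (2007) procedure.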

pIC50: −log10 of the molar value. In brackets after ≈: the same amount, converted by molar mass.

We go through 22 molecules from US20140005163A1 (NOVARTIS AG, priority 2010, published 2014).

T1 sequence (P42336 with tags, fused parts or gaps limits assumed): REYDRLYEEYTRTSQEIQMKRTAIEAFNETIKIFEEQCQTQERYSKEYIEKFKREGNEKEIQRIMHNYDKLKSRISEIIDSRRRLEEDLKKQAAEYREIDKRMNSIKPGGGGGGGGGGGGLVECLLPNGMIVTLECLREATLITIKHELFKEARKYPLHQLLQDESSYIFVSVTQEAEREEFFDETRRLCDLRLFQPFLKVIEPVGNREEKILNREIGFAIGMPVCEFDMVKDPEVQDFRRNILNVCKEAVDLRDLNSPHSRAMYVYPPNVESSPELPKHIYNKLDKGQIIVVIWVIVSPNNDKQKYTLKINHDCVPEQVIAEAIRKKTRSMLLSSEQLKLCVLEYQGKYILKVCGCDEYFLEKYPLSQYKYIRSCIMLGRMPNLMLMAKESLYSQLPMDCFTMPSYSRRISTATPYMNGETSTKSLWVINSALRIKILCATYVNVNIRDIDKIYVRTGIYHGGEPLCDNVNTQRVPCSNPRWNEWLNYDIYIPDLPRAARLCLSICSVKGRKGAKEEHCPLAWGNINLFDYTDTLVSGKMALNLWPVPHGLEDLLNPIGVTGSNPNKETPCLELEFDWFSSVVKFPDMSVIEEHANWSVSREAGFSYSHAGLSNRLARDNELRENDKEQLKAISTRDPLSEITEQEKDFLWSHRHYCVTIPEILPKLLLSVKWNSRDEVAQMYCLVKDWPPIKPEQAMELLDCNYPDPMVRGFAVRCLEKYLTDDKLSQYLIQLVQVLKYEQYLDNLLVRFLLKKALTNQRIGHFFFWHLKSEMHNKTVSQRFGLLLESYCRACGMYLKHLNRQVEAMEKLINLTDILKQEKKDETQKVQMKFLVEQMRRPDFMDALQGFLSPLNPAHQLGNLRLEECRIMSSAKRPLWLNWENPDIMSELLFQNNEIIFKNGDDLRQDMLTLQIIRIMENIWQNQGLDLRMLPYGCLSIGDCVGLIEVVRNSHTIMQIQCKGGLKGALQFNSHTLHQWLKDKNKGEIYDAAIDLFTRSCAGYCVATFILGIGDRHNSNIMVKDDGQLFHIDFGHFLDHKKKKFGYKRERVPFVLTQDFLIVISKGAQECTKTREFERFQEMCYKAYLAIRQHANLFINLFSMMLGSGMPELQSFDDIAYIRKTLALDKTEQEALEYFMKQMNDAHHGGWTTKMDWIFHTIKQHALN

As usually defined, the pIC50 is −log10 of the IC50, conventionally taken in molar units. The solubility is how much of the substance goes into solution per volume. For `CCNc1cc(-c2ccc3ncc4c(c3c2)n(-c2cn(C)nc2C)c(=O)n4C)cnc1CO` [Example 155.1, 1-(1,3-Dimethyl-1H-pyrazol-4-yl)-8-(5-ethylamino-6-hydroxymethyl-pyridin-3-yl)-3-methyl-1,3-dihydro-imidazo[4,5-c]quinolin-2-one], the pIC50 is 7.66 in data set [1] and 7.89 on PI3K alpha. Also, the solubility in “Solubility at pH 6.8” came to 73 µg/mL (≈ 165 µM).

`CCNc1cc(-c2ccc3ncc4c(c3c2)n(-c2cn(CC)nc2C)c(=O)n4C)cnc1CO` [Example 155.2, 8-(5-Ethylamino-6-hydroxymethyl-pyridin-3-yl)-1-(1-ethyl-3-methyl-1H-pyrazol-4-yl)-3-methyl-1,3-dihydro-imidazo[4,5-c]quinolin-2-one]: the negative logarithm of the IC50 (pIC50) in data set [1] was 8.15; on PI3K alpha, 7.85. The solubility in “Solubility at pH 6.8” is > 458 µg/mL.

Consider `CNc1cc(-c2ccc3ncc4c(c3c2)n(-c2cn(C(C)C)nc2C)c(=O)n4C)cnc1CO` [Example 158.2, 8-(6-Hydroxymethyl-5-methylamino-pyridin-3-yl)-1-(1-isopropyl-3-methyl-1H-pyrazol-4-yl)-3-methyl-1,3-dihydro-imidazo[4,5-c]quinolin-2-one], for which the negative-log IC50 (pIC50) in data set [1] was 8.22; on PI3K alpha, 7.36. In the data set “Solubility at pH 6.8”, the solubility is > 458 µg/mL.

As for `CNc1cc(-c2ccc3ncc4c(c3c2)n(-c2cn(C)nc2Cl)c(=O)n4C)cnc1CO` [Example 158.3, 1-(3-Chloro-1-methyl-1H-pyrazol-4-yl)-8-(6-hydroxymethyl-5-methylamino-pyridin-3-yl)-3-methyl-1,3-dihydro-imidazo[4,5-c]quinolin-2-one], the pIC50 in data set [1] was > 8.30; at PI3K alpha, 8.15. Further, the solubility in the data set “Solubility at pH 6.8” turned out to be 3 µg/mL (≈ 6.67 µM).

`CNc1cc(-c2ccc3ncc4c(c3c2)n(-c2cn(C)nc2C)c(=O)n4C)cnc1C` [Example 163, 1-(1,3-Dimethyl-1H-pyrazol-4-yl)-3-methyl-8-(6-methyl-5-methylamino-pyridin-3-yl)-1,3-dihydro-imidazo[4,5-c]quinolin-2-one]: the pIC50 in data set [1] was > 8.30; on PI3K alpha it was 8.22. Further, the solubility in “Solubility at pH 6.8” was determined as 24 µg/mL (≈ 58 µM).

Take `CCN(C)c1cc(-c2ccc3ncc4c(c3c2)n(-c2cn(C)nc2C)c(=O)n4C)cnc1C` [Example 165, 1-(1,3-Dimethyl-1H-pyrazol-4-yl)-8-[5-(ethyl-methyl-amino)-6-methyl-pyridin-3-yl]-3-methyl-1,3-dihydro-imidazo[4,5-c]quinolin-2-one]: the pIC50 in data set [1] was 7.96; on PI3K alpha, 8.15. In addition, in the data set “Solubility at pH 6.8”, the solubility is > 442 µg/mL.

For `Cc1nn(C(C)C)cc1-n1c(=O)n(C)c2cnc3ccc(-c4cnc(N)c(CO)c4)cc3c21` [Example 169.1, 8-(6-Amino-5-hydroxymethyl-pyridin-3-yl)-1-(1-isopropyl-3-methyl-1H-pyrazol-4-yl)-3-methyl-1,3-dihydro-imidazo[4,5-c]quinolin-2-one], the pIC50 in data set [1] is 7.43; at PI3K alpha, 7.62. In addition, the solubility in “Solubility at pH 6.8” was determined as 289 µg/mL (≈ 652 µM).

As to `Cc1nn(C)c(C)c1-n1c(=O)n(C)c2cnc3ccc(-c4cnc(N)c(CO)c4)cc3c21` [Example 169.2, 8-(6-Amino-5-hydroxymethyl-pyridin-3-yl)-3-methyl-1-(1,3,5-trimethyl-1H-pyrazol-4-yl)-1,3-dihydro-imidazo[4,5-c]quinolin-2-one], the pIC50 in data set [1] was 6.23; at PI3K alpha, 7.47. The solubility in the data set “Solubility at pH 6.8” was > 429 µg/mL.

On to `Cc1nn(C)cc1-n1c(=O)n(C)c2cnc3ccc(-c4cncc(NC5CCC5)c4)cc3c21` [Example 172, 8-(5-Cyclobutylamino-pyridin-3-yl)-1-(1,3-dimethyl-1H-pyrazol-4-yl)-3-methyl-1,3-dihydro-imidazo[4,5-c]quinolin-2-one], for which the results for the pIC50 (in data set [1]; on PI3K alpha) were 7.89 and 7.41, respectively. Also, in the data set “Solubility at pH 6.8”, the solubility amounted to 11 µg/mL (≈ 25 µM).

For the molecule `Cc1nn(C)cc1-n1c(=O)n(C)c2cnc3ccc(-c4cncc(N(C)C(C)C)c4)cc3c21` [Example 173, 1-(1,3-Dimethyl-1H-pyrazol-4-yl)-8-[5-(isopropyl-methyl-amino)-pyridin-3-yl]-3-methyl-1,3-dihydro-imidazo[4,5-c]quinolin-2-one], the pIC50 in data set [1] was 7.54; at PI3K alpha, 7.64. For the same molecule, in “Solubility at pH 6.8”, the solubility is 8 µg/mL (≈ 18.1 µM).

On to `Cc1nn(C)cc1-n1c(=O)n(C)c2cnc3ccc(-c4cncc(N5CCOCC5)c4)cc3c21` [Example 175.1, 1-(1,3-Dimethyl-1H-pyrazol-4-yl)-3-methyl-8-(5-morpholin-4-yl-pyridin-3-yl)-1,3-dihydro-imidazo[4,5-c]quinolin-2-one], for which the pIC50 is 7.43 in data set [1] and 7.18 at PI3K alpha. Moreover, in “Solubility at pH 6.8”, the solubility was 35 µg/mL (≈ 76.8 µM).

For the molecule `Cc1nn(C)cc1-n1c(=O)n(C)c2cnc3ccc(-c4cncc(N(C)C)c4)cc3c21` [Example 178, 8-(5-Dimethylamino-pyridin-3-yl)-1-(1,3-dimethyl-1H-pyrazol-4-yl)-3-methyl-1,3-dihydro-imidazo[4,5-c]quinolin-2-one], the pIC50 was 7.31 in data set [1] and 7.09 at PI3K alpha. For the same molecule, in “Solubility at pH 6.8”, the solubility worked out at 25 µg/mL (≈ 60.5 µM).

`Cc1nn(C)cc1-n1c(=O)n(C)c2cnc3ccc(-c4cncc(N5CCC5)c4)cc3c21` [Example 179, 8-(5-Azetidin-1-yl-pyridin-3-yl)-1-(1,3-dimethyl-1H-pyrazol-4-yl)-3-methyl-1,3-dihydro-imidazo[4,5-c]quinolin-2-one]: the pIC50 in data set [1] is 7.68; at PI3K alpha it was 7.41. Moreover, the solubility in the data set “Solubility at pH 6.8” worked out at 28 µg/mL (≈ 65.8 µM).

As to `CNc1cncc(-c2ccc3ncc4c(c3c2)n(-c2cn(C(C)C)nc2C)c(=O)n4C)c1` [Example 180.2, 1-(1-Isopropyl-3-methyl-1H-pyrazol-4-yl)-3-methyl-8-(5-methylamino-pyridin-3-yl)-1,3-dihydro-imidazo[4,5-c]quinolin-2-one], the negative logarithm of the IC50 (pIC50) in data set [1] is 7.49; on PI3K alpha, 7.66. In addition, the solubility in “Solubility at pH 6.8” is 10 µg/mL (≈ 23.4 µM).

Take `CCOc1cc(-c2ccc3ncc4c(c3c2)n(-c2cn(C)nc2C)c(=O)n4C)cnc1CC` [Example 187, 1-(1,3-Dimethyl-1H-pyrazol-4-yl)-8-(5-ethoxy-6-ethyl-pyridin-3-yl)-3-methyl-1,3-dihydro-imidazo[4,5-c]quinolin-2-one]: the pIC50 in data set [1] is 7.43; on PI3K alpha it was 7.82. Moreover, the solubility in the data set “Solubility at pH 6.8” stood at 3 µg/mL (≈ 6.78 µM).

For `CCc1ncc(-c2ccc3ncc4c(c3c2)n(-c2cn(C)nc2C)c(=O)n4C)cc1O` [Example 188, 1-(1,3-Dimethyl-1H-pyrazol-4-yl)-8-(6-ethyl-5-hydroxy-pyridin-3-yl)-3-methyl-1,3-dihydro-imidazo[4,5-c]quinolin-2-one], the pIC50 in data set [1] was 7.66; on PI3K alpha, 8.05. For the same molecule, in the data set “Solubility at pH 6.8”, the solubility was found to be 44 µg/mL (≈ 106 µM).

On to `CCn1cc(-n2c(=O)n(C)c3cnc4ccc(-c5cnc(COC)c(OC(C)C)c5)cc4c32)c(C)n1` [Example 191.2, 1-(1-Ethyl-3-methyl-1H-pyrazol-4-yl)-8-(5-isopropoxy-6-methoxymethyl-pyridin-3-yl)-3-methyl-1,3-dihydro-imidazo[4,5-c]quinolin-2-one], for which the results for the pIC50 (in data set [1]; at PI3K alpha) were 7.24 and 7.89, respectively. Moreover, the solubility in “Solubility at pH 6.8” was 243 µg/mL (≈ 499 µM).

As to `Cc1nn(C)cc1-n1c(=O)n(C)c2cnc3ccc(-c4cnc(CO)c(OC(CF)CF)c4)cc3c21` [Example 192, 1-(1,3-Dimethyl-1H-pyrazol-4-yl)-8-[5-(2-fluoro-1-fluoromethyl-ethoxy)-6-hydroxymethyl-pyridin-3-yl]-3-methyl-1,3-dihydro-imidazo[4,5-c]quinolin-2-one], the pIC50 in data set [1] is 7.42; on PI3K alpha it was > 8.52. Further, the solubility in “Solubility at pH 6.8” worked out at 27 µg/mL (≈ 54.6 µM).

As to `CCOCc1ncc(-c2ccc3ncc4c(c3c2)n(-c2cn(C)nc2C)c(=O)n4C)cc1OC` [Example 196.2, 1-(1,3-Dimethyl-1H-pyrazol-4-yl)-8-(6-ethoxymethyl-5-methoxy-pyridin-3-yl)-3-methyl-1,3-dihydro-imidazo[4,5-c]quinolin-2-one], the figures for the pIC50 (in data set [1]; at PI3K alpha) were 6.97 and 6.76, respectively. The solubility in “Solubility at pH 6.8” was > 459 µg/mL.

For `CCOc1cc(-c2ccc3ncc4c(c3c2)n(-c2cn(C(C)C)nc2C)c(=O)n4C)cnc1COC` [Example 197.2, 8-(5-Ethoxy-6-methoxymethyl-pyridin-3-yl)-1-(1-isopropyl-3-methyl-1H-pyrazol-4-yl)-3-methyl-1,3-dihydro-imidazo[4,5-c]quinolin-2-one], the results for the pIC50 (in data set [1]; on PI3K alpha) were 7.11 and 7.39, respectively. Besides, in “Solubility at pH 6.8”, the solubility was found to be 225 µg/mL (≈ 462 µM).

`COCc1ccc(-c2ccc3ncc4c(c3c2)n(-c2cn(C)nc2Cl)c(=O)n4C)cn1` [Example 203, 1-(3-Chloro-1-methyl-1H-pyrazol-4-yl)-8-(6-methoxymethyl-pyridin-3-yl)-3-methyl-1,3-dihydro-imidazo[4,5-c]quinolin-2-one]: the results for the pIC50 (in data set [1]; at PI3K alpha) were 7.89 and 8.30, respectively. Moreover, the solubility in the data set “Solubility at pH 6.8” came out at 12 µg/mL (≈ 27.6 µM).

For `CCNc1ncc(-c2ccc3ncc4c(c3c2)n(-c2cn(C)nc2C)c(=O)n4C)cc1COC` [Example 206.1, 1-(1,3-Dimethyl-1H-pyrazol-4-yl)-8-(6-ethylamino-5-methoxymethyl-pyridin-3-yl)-3-methyl-1,3-dihydro-imidazo[4,5-c]quinolin-2-one], the pIC50 is 6.65 in data set [1] and 7.59 at PI3K alpha. Moreover, the solubility in “Solubility at pH 6.8” turned out to be 8 µg/mL (≈ 17.5 µM).
